The values that follow come from patent US20050181462A1, “Mutant androgen receptor, cancer cells expressing the same, a method of producing them and use thereof” (priority 2002, published 2005).

Structures are written as SMILES.

This test has as its target T1, W741C type mutant AR (Homo sapiens, UniProt P10275, DUP77-80/W742C).
T1 construct: expressed in transfected cells; host or cells: Cos-7
Put plainly: Antagonist screening: inhibition of DHT-induced W741C mutant AR transcription activity (luciferase co-transfection). The conditions noted are these: 40 nM DHT + 10 μM Compound A. The test is classed as cell-based. The source says: FIG. 4 is a drawing showing the antagonistic action of Compound A on a W741C type mutant AR. […] Mean±standard error, n=16 for the only-DHT addition group and n=4 for the DHT+Compound A addition group.

T1 sequence (P10275 with tags, fused parts or gaps DUP77-80/W742C): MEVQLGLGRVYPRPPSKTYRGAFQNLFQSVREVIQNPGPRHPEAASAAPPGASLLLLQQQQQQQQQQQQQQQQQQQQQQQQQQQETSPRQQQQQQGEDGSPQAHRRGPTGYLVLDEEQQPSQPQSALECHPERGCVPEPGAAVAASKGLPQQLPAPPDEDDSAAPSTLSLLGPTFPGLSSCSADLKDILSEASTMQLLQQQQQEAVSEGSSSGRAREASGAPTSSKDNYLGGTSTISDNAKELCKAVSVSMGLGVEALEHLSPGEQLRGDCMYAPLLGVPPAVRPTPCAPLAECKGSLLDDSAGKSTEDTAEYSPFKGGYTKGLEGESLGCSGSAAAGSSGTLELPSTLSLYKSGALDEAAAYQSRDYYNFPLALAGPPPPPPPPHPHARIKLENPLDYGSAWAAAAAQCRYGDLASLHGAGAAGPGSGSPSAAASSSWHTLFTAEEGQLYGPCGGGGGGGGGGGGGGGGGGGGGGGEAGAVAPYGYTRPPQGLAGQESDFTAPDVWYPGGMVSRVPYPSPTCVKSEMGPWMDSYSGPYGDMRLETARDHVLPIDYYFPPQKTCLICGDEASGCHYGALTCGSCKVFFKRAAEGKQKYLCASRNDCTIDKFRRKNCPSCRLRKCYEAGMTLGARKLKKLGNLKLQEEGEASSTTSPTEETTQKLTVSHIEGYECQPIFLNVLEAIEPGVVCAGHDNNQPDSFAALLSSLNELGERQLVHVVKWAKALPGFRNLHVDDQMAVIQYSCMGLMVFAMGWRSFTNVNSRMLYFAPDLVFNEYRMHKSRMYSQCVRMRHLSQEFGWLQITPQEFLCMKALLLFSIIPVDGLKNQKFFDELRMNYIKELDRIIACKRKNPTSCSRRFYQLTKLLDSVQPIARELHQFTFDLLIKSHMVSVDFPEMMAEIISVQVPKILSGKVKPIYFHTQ

In the case of `CCOC(=O)c1c(C)[nH]c(C)c1-c1ccc([N+](=O)[O-])cc1` [Compound A, ethyl 2,5-dimethyl-4-(4-nitrophenyl)-1H-pyrrole-3-carboxylate], the “action on W741C type mutant AR transcription activity of DHT” value is listed as “antagonist action”.
